Test results: US7192607B2, “Formulations for the prevention or the treatment of diseases affecting mucosae or skin, or for pregnancy prevention, and an applicator for the delivery of topical formulations into mucosal cavities” (Infectio Recherche Inc, priority 2002, dated 2007)

Test system: HSV-1 (strain F)
Experiment: Efficacy of SLS or DS added in overlay after infection against HSV-1 (strain F) in Vero cells (PFU)
Format: cell-based, Herpes simplex virus type-1
Settings: cells infected 2 h, compound in overlay for 2 days, FIG. 2
Method: In brief, cells were infected with the virus for 2 h at 37° C. Afterwards, supernatant was removed and cells were overlaid with 0.5 ml of EMEM +2% FBS containing 0.6% agarose Seaplaque and SLS or DS at the desired concentration. Plates were then incubated for 2 days at 37° C. in a 5% CO2 atmosphere. Cells were fixed with 10% formaldehyde in PBS for 20 min, washed with deionized water and stained with 0.05% methylene blue. Viral infectivity was evaluated following the determination of PFU.

CCCCCCCCCCCCOS(=O)(=O)[O-].[Na+] [SLS, Sodium lauryl sulfate]
concentration with complete efficacy against viral replication: 100 µM
